{"source": "patent US10039771B2", "about": "“Method for cancer cell reprogramming” (STC.UNM, priority 2013, dated 2018)", "key": {"U937 cells [1]": {"tested_on": "U937 cells", "experiment": "Annexin V-PE/7-AAD apoptosis assay", "assay_type": "cell-based", "conditions": "Homo sapiens", "description": "To detect apoptosis we used an Annexin V and 7-amino-actinomycin D (7-AAD) based assay. Annexin V is a protein that has high binding affinity to phosphatidylserine, which is translocated from the inner to the outer leaflet of the membrane during early apoptosis. 7-AAD is a DNA dye that stains cells only when the cell membranes are permeable. Thus, double positive events are considered to represent end stage apoptosis and dead cells. […] The results obtained using this assay correlated well with the results of other assays:\nSix-well plates were set up with dose responses for each of the 11 hit compounds (artemisinin, artemether, artesunate, dihydroartemisinin, parthenolide, patulin, clioquinol, cryptotanshinone, pyrithione zinc, harmalol, quinalizarin). Each well contained 2.5×10^6 U937 cells in 5 mL cRPMI. To each well, 15 μL of compound in DMSO (or vehicle control) was fTadded, giving final concentrations of 0, 300 nM, and 1, 3, 10, and 30 […] were incubated overnight, at 37° C., 5% CO2/95% air. The compound effects on apoptosis were assessed with an Annexin V-PE/7-amino-actinomycin D (7-AAD) kit (BD Pharmingen™ cat. no. 559763), according to manufacturer protocol, and data were collected with a BD Accuri™ C6 flow cytometer. A gate was set for live cells, and 10,000 gated events were collected per sample. FL-2 versus FL-3 channel dot plots were divided into quadrants and were used to determine percentages of gated cells that were Annexin V^−/7-AAD^− (live, healthy cells), Annexin V^+/7-AAD^− (early apoptosis), or Annexin V^+/7-AAD^+ (late, full apoptosis).\n[…] The samples were plotted as Annexin V vs 7-AAD and quadrant-gated. Annexin V^+, 7-AAD^− events are indicative of early apoptosis, in which phosphatidyl serine has flipped to the outer leaflet of the cell membrane. Annexin V^+, 7-AAD^+ (double positive) events indicate cell and nuclear membrane permeabilization, marking late apoptotic events or complete cell death."}, "[2]": {"tested_on": "healthy human peripheral blood mononuclear cells (PBMCs)", "experiment": "Cell TiterGlo luminescent cell viability assay in PBMCs"}, "U937 cells [3]": {"tested_on": "U937 cells", "experiment": "F-cAMP (Alexa 488-cAMP) efflux assay / high throughput flow cytometry screen", "assay_type": "cell-based, human", "conditions": "for Hit status in preliminary screen for cAMP efflux inhibitors: Prestwick/SPECTRUM library screen, U937 cells", "method": "U937 cell were loaded with the analog by a method relying on osmotic lysis of pinocytic vesicles (15). After incubation, cell fluorescence decreased to a level that was close to cell autofluorescence.\nBriefly, cells were concentrated and washed, with resuspension NF-RPMI (cRPMI without FBS). Cells were then resuspended in an NF-RPMI hypertonic solution containing poly(ethylene glycol) 1,000 (PEG), sucrose, and Alexa Fluor® 488 8-(6-aminohexyl) aminoadenosine 3′,5′-cyclicmonophosphate, bis(triethylammonium) salt, hereafter referred to as F-cAMP, to give a final concentration of 4.76 mM F-cAMP. Cells were incubated for 10 min, room temperature, then centrifuged and resuspended in hypotonic solution (60% cRPMI, 40% sterile water) for 2 min at room temperature to complete the F-cAMP loading. The cells were then washed and resuspended in cRPMI at a final concentration of 4×10^5 cells/mL, and allowed to equilibrate for 2 hours in a 37° C., 5% CO2/95% air incubator.\nThe remainder of the cells was incubated (37° C., 5% CO2/95% air) in the presence of dimethyl sulfoxide (DMSO) vehicle or compounds overnight. Flow cytometry was used to measure samples, and unstained U937 cells were used to create a gate to mark viable cells. Control and experimental samples were excited with a 488 nm laser and analyzed for FL-1 median fluorescence intensity (MFI) within that gate.\nFor the high throughput screening assay (HTS), U937 cells were loaded with F-cAMP as described above. Solutions were added to 384-well plates (Greiner 784201) with a Biomek FX Multichannel system (Beckman-Coulter) and/or MicroFlo as follows: 1) 5 μL cRPMI; 2) 100 nL compounds from the Prestwick Chemical Library or Spectrum 2000 Library in DMSO were delivered by pintool (V&P Scientific, San Diego, Calif.), final DMSO concentration=1%; 3) 5 μL F-cAMP cells. Negative control wells contained stained cells with 1% DMSO only. For positive controls, F-cAMP cells were treated with 200 μM MK-571. The final concentration for all conditions was 2000 cells/well. The plates were sealed with foil, and incubated (37° C., 5% CO2/95% air) inverted overnight.\nAfter incubation, the 384-well sample plates were analyzed by CyAn flow cytometers (Beckman-Coulter) configured with HyperCyt high throughput auto-sampler systems (IntelliCyt Albuquerque, N. Mex.). The samples were interrogated with 488 nm lasers to assess FL-1 MCI levels.\nData from the HTS were analyzed with HyperView software (IntelliCyt, Albuquerque, N. Mex.) and gated on untreated, live cell populations and then time-gated to separate data per well. FL-1 MCI values for the samples were analyzed per plate. Those samples which reported MCI values≥2 standard deviations above the plate mean negative control values were considered “hit” compounds.\nTo validate the identified samples and decrease the number of potential false-positive compounds, the hit compounds were assayed in a high-throughput dose response assay. This assay set up 384-well plates with the same volumes of F-cAMP cells, cRPMI, and DMSO/compounds as in the HTS, with the plate formats containing 10-well dose responses for each hit compound, at final concentrations ranging 30 μM to 4 nM. These plates were also foil-sealed, and incubated inverted overnight. Post-incubation, the dose response plates were analyzed by high throughput flow cytometry, as above. […]"}, "Nalm 6 cells": {"tested_on": "Nalm 6 cells", "experiment": "Cross-cell line test for cAMP efflux (F-cAMP)", "assay_type": "cell-based, human", "conditions": "Nalm 6, 37° C., 100 μM MK-571, overnight", "method": "(§1) To study the differences in cAMP-removal, cells were loaded with a fluorescent cAMP-analog, and incubated under different conditions: low temperature (4° C.) used to estimate the passive probe “leakage”, and physiological temperature (37° C.) used to assess active removal of the probe.\n(§2) Briefly, 15 million cells were loaded with F-cAMP via the osmotic process detailed above. Small volumes of cells were analyzed by flow cytometry post-staining to determine baseline fluorescence values based on MFI. […] The remaining cells were split in half, and one group was treated with a final concentration of 100 μM MK-571, while the other received DMSO-only at an equal volume. These two groups of cells were incubated ˜24 hr according to standard tissue culture conditions (37° C., 5% CO2/95% air). After incubation, cells were analyzed with flow cytometry for FL-1 MFI.\n(§3) Because cells loaded with F-cAMP were washed, the resulting concentration gradient could have caused a “passive leak” of the probe. All 6 cell lines appeared to efflux F-cAMP, although to different extents (FIG. 7A a). After incubation at 4° C., the cells lost 20-60% of their fluorescence from the initial F-cAMP loading."}, "MHH Call 3 cells": {"tested_on": "MHH Call 3 cells", "experiment": "Cross-cell line test for cAMP efflux (F-cAMP)", "assay_type": "cell-based, human", "conditions": "MHH Call 3, 37° C., 100 μM MK-571, overnight", "method": "as §1, §2, §3"}, "Reh cells": {"tested_on": "Reh cells", "experiment": "Cross-cell line test for cAMP efflux (F-cAMP)", "assay_type": "cell-based, human", "conditions": "37° C., 100 μM MK-571, overnight", "method": "as §1, §2, §3"}, "Sup B15 cells": {"tested_on": "Sup B15 cells", "experiment": "Cross-cell line test for cAMP efflux (F-cAMP)", "assay_type": "cell-based, human", "conditions": "Sup B15, 37° C., 100 μM MK-571, overnight", "method": "as §1, §2, §3"}, "697 cells": {"tested_on": "697 cells", "experiment": "Cross-cell line test for cAMP efflux (F-cAMP)", "assay_type": "cell-based, human", "conditions": "697, 37° C., 100 μM MK-571, overnight", "method": "as §1, §2, §3"}, "RS4; 11 cells": {"tested_on": "RS4; 11 cells", "experiment": "Cross-cell line test for cAMP efflux (F-cAMP)", "assay_type": "cell-based, human", "conditions": "11, 37° C., 100 μM MK-571, overnight", "method": "as §1, §2, §3"}, "U937 cells [4]": {"tested_on": "U937 cells", "experiment": "CellTrace CFSE cell proliferation assay", "conditions": "3 μM, 48 hr"}, "U937 cells [5]": {"tested_on": "U937 cells", "experiment": "Propidium iodide cell cycle assay", "conditions": "24 hour incubation, dose response"}, "[6]": {"conditions": "U-937, U937 cells, overnight incubation, dose responses 300 nM to 30 μM, read-out: Calculated EC50 values from Annexin V, 7-AAD double positive events"}, "[7]": {"conditions": "U-937, read-out: Calculated EC50 values from Annexin V, 7-AAD double positive events"}}, "data": [{"smiles": "O=C1c2ccc(O)c(O)c2C(=O)c2c(O)ccc(O)c21", "note": "[Quinalizarin, quinalizarin]", "values": [{"measurement": "EC50", "setting": "U937 cells [1]; [6]", "value": 172, "unit": "µM"}]}, {"smiles": "CC1=NCCc2c1[nH]c1cc(O)ccc21", "note": "[Harmalol, harmalol]", "values": [{"measurement": "EC50", "setting": "U937 cells [1]; [6]", "value": 283, "unit": "µM"}]}, {"smiles": "[O-][n+]1ccccc1[S-].[O-][n+]1ccccc1[S-].[Zn+2]", "note": "[Pyrithione zinc, pyrithione zinc]", "values": [{"measurement": "Selectivity: concentrations required by leukemic cells versus PBMCs (calculated EC50 values)", "setting": "[2]; viability EC50, leukemic cell lines vs PBMCs", "value": "exception"}]}, {"smiles": "CN(C)C(=O)CCSC(SCCC(=O)O)c1cccc(/C=C/c2ccc3ccc(Cl)cc3n2)c1", "note": "(stereo not drawn) [MK-571]", "values": [{"measurement": "EC50", "setting": "U937 cells [3]; Homo sapiens, U-937, read-out: EC50 for inhibition of cAMP efflux calculated in assay development, U937 cells loaded with F-cAMP, overnight", "value": 31, "unit": "µM"}, {"measurement": "Effect on cAMP efflux", "setting": "U937 cells [3]; U937 cells loaded with F-cAMP, overnight", "value": "down-modulated cAMP efflux in a dose-dependent manner"}, {"measurement": "F-cAMP probe removed in the presence of MK-571", "setting": "Nalm 6 cells", "value": "60-70%"}, {"measurement": "F-cAMP efflux in the presence of MK-571", "setting": "MHH Call 3 cells", "value": "blocked completely"}, {"measurement": "F-cAMP probe removed in the presence of MK-571", "setting": "Reh cells", "value": "30-40%"}, {"measurement": "F-cAMP efflux in the presence of MK-571", "setting": "Sup B15 cells", "value": "blocked completely"}, {"measurement": "F-cAMP probe removed in the presence of MK-571", "setting": "697 cells", "value": "60-70%"}, {"measurement": "F-cAMP probe removed in the presence of MK-571", "setting": "RS4; 11 cells", "value": "30-40%"}]}, {"smiles": "O=C(O)Cc1ccccc1Nc1c(Cl)cccc1Cl", "note": "[diclofenac]", "values": [{"measurement": "Hit status in preliminary screen for cAMP efflux inhibitors", "setting": "U937 cells [3]", "value": "did not come out as hits"}]}, {"smiles": "O=C1C=C2C(=CCOC2O)O1", "note": "(stereo not drawn) [Patulin, patulin]", "values": [{"measurement": "EC50", "setting": "U937 cells [1]; [7]", "value": 3.29, "unit": "µM"}, {"measurement": "Effect on cell division (CFSE fluorescence)", "setting": "U937 cells [4]", "value": "arrest of cell division within 48 hr"}]}, {"smiles": "CO[C@H]1O[C@@H]2O[C@@]3(C)CC[C@H]4[C@H](C)CC[C@@H]([C@H]1C)[C@@]24OO3", "note": "[Artemether, artemether]", "values": [{"measurement": "EC50", "setting": "U937 cells [1]; [6]", "value": 106, "unit": "µM"}]}, {"smiles": "C[C@H]1[C@H](OC(=O)CCC(=O)O)O[C@@H]2O[C@@]3(C)CC[C@H]4[C@H](C)CC[C@@H]1[C@@]24OO3", "note": "[Artesunate, artesunate]", "values": [{"measurement": "EC50", "setting": "U937 cells [1]; [6]", "value": 99.1, "unit": "µM"}, {"measurement": "Effect on cell cycle (PI staining)", "setting": "U937 cells [5]", "value": "increased percentages of cells in G1 or apoptosis in a dose-dependent manner"}]}, {"smiles": "CC1=C(CC(=O)O)c2cc(F)ccc2/C1=C\\c1ccc([S+](C)[O-])cc1", "note": "(stereo not drawn) [sulindac]", "values": [{"measurement": "Hit status in preliminary screen for cAMP efflux inhibitors", "setting": "U937 cells [3]", "value": "did not come out as hits"}]}, {"smiles": "C[C@@H]1CC[C@H]2[C@@H](C)C(=O)O[C@@H]3O[C@@]4(C)CC[C@@H]1[C@]32OO4", "note": "[Artemisinin, artemisinin]", "values": [{"measurement": "EC50", "setting": "U937 cells [1]; [6]", "value": 249, "unit": "µM"}]}, {"smiles": "C[C@H]1COC2=C1C(=O)C(=O)c1c2ccc2c1CCCC2(C)C", "note": "[Cryptotanshinone, cryptotanshinone]", "values": [{"measurement": "EC50", "setting": "U937 cells [1]; [7]", "value": 53.5, "unit": "µM"}, {"measurement": "EC50", "setting": "[2]; Homo sapiens, PBMC, read-out: EC50 for decreased PBMC viability", "value": "~12", "unit": "µM"}]}, {"smiles": "C[C@H]1[C@@H](O)O[C@@H]2O[C@@]3(C)CC[C@H]4[C@H](C)CC[C@@H]1[C@@]24OO3", "note": "[Dihydroartemisinin, dihydroartemisinin]", "values": [{"measurement": "EC50", "setting": "U937 cells [1]; [6]", "value": 55.7, "unit": "µM"}]}, {"smiles": "Oc1c(I)cc(Cl)c2cccnc12", "note": "[Clioquinol, clioquinol]", "values": [{"measurement": "EC50", "setting": "U937 cells [1]; [6]", "value": 76.6, "unit": "µM"}]}, {"smiles": "CC[C@@]1(O)C(=O)OCc2c1cc1n(c2=O)Cc2cc3c(CN(C)C)c(O)ccc3nc2-1", "note": "[topotecan]", "values": [{"measurement": "Hit status in preliminary screen for cAMP efflux inhibitors", "setting": "U937 cells [3]", "value": "did not come out as hits"}]}]}
